Data as given in patent publication US20230295142A1, “NOVEL COMPOUNDS AS HISTONE DEACETYLASE 6 INHIBITOR, AND PHARMACEUTICAL COMPOSITION COMPRISING THE SAME” (CHONG KUN DANG PHARMACEUTICAL CORP., priority 2020, published 2023).

Assays:
[1] = target: HDAC1 (Homo sapiens (Human), UniProt Q13547); assay: HDAC1 enzyme activity inhibition (HDAC1 Fluorimetric Drug Discovery Assay Kit); format: biochemical; details: samples at 100, 1000 and 10000 nM; 37° C. 60 minutes
Procedure: (§1) A HDAC enzyme inhibitory capacity of a test material was measured by using HDAC1 Fluorimetric Drug Discovery Assay Kit (Enzolifesciences: BML-AK511) and HDAC6 human recombinant (Calbiochem: 382180). For a HDAC1 assay, samples were treated at a concentration of 100, 1000 and 10000 nM. For a HDAC6 assay, samples were treated at a concentration of 0.1, 1, 10, 100 and 1000 nM. After the above sample treatment, a reaction was continued at 37° C. for 60 minutes, treated with a developer, and subjected to reaction at 37° C. for 30 minutes, after which fluorescence intensity (Ex 390, Em 460) was measured by using FlexStatin3 (Molecular device).

[2] = target: HDAC6 human recombinant (Homo sapiens (Human), UniProt Q9UBN7); assay: HDAC6 enzyme activity inhibition (fluorimetric, in vitro); format: biochemical; details: samples at 0.1, 1, 10, 100 and 1000 nM; 37° C. 60 minutes
Procedure: as §1

Sequence of HDAC6 human recombinant (Q9UBN7 whole entry): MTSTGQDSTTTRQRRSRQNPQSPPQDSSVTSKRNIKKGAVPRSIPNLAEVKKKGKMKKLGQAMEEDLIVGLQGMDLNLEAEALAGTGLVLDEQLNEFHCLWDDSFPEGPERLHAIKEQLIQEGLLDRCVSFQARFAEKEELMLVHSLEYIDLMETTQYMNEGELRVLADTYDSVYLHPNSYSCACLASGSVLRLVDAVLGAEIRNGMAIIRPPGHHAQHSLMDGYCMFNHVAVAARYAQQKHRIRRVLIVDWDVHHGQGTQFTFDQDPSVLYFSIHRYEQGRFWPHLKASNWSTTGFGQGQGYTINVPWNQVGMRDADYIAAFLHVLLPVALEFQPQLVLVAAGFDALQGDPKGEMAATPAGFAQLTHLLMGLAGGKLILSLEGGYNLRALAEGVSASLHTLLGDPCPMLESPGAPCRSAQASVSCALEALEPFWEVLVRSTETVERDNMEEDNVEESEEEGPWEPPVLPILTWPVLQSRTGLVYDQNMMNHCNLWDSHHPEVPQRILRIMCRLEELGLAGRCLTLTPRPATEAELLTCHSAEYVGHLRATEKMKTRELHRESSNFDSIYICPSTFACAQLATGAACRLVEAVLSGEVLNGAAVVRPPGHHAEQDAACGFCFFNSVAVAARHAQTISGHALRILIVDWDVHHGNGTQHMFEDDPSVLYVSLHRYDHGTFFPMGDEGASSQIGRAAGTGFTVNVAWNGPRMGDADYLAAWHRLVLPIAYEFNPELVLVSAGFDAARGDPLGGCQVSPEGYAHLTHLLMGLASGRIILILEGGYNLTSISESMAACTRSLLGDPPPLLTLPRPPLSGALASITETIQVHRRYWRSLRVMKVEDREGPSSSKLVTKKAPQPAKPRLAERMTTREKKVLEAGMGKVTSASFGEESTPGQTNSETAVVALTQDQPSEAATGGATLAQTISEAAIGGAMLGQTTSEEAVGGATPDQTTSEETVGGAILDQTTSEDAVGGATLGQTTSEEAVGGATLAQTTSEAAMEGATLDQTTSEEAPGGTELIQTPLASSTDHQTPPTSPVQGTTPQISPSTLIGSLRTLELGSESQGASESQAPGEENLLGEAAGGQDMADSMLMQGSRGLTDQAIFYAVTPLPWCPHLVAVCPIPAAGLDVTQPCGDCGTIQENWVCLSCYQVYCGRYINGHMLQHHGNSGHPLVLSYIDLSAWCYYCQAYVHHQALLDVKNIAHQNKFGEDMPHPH
Sequence of HDAC1 (Q13547 whole entry): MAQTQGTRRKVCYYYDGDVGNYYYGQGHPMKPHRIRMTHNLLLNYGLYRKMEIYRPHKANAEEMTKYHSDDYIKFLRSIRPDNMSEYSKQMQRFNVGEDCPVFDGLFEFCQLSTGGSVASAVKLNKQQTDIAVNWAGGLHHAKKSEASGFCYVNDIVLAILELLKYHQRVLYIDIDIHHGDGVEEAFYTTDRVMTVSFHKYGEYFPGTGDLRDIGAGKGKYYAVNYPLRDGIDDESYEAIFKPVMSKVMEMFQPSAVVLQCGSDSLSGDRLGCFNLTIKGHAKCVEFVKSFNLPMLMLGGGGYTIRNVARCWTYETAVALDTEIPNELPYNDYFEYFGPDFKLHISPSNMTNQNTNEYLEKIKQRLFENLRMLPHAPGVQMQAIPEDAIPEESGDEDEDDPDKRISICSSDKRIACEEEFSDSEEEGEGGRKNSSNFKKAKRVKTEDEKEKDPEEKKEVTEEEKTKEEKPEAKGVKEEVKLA

| Structure (SMILES) | IC50 [1] [µM] | IC50 [2] [nM] |
| --- | --- | --- |
| O=C1N(Cc2ccc(-c3nnc(C(F)F)o3)cn2)C(=O)C2(CCC2)N1c1ccccc1 [Compound 24, 7-((5-(5-(difluoromethyl)-1,3,4-oxadiazol-2-yl)pyridin-2-yl)methyl)-5-phenyl-5,7-diazaspiro[3.4]octan-6,8-dione] | > 10 | 56 |
| CC1(C)C(=O)N(Cc2ccc(-c3nnc(C(F)F)o3)cn2)C(=O)N1c1ccc(-c2cccnc2)cc1 [Compound 27, 3-((5-(5-(difluoromethyl)-1,3,4-oxadiazol-2-yl)pyridin-2-yl)methyl)-5,5-dimethyl-1-(4-(pyridin-3-yl)phenyl)imidazolidin-2,4-dione] | > 10 | 55 |
| CC(C)N1CCC2(CC1)C(=O)N(Cc1ccc(-c3nnc(C(F)F)o3)cn1)C(=O)N2c1cccc(F)c1 [Compound 8, 3-((5-(5-(difluoromethyl)-1,3,4-oxadiazol-2-yl)pyridin-2-yl)methyl)-1-(3-fluorophenyl)-8-isopropyl-1,3,8-triazaspiro[4.5]decan-2,4-dione] | > 10 | 99 |
| CC1(C)C(=O)N(Cc2ccc(-c3nnc(C(F)F)o3)cn2)C(=O)N1c1ccc(-c2ccoc2)cc1 [Compound 25, 3-((5-(5-(difluoromethyl)-1,3,4-oxadiazol-2-yl)pyridin-2-yl)methyl)-1-(4-(furan-3-yl)phenyl)-5,5-dimethylimidazolidin-2,4-dione] | > 10 | 106 |
| O=C1CN(c2ccccc2)C(=O)N1Cc1ccc(-c2nnc(C(F)F)o2)cc1F [Compound 3, 3-(4-(5-(difluoromethyl)-1,3,4-oxadiazol-2-yl)-2-fluorobenzyl)-1-phenylimidazolidin-2,4-dione] | > 10 | 219 |
| CC(C)(C)OC(=O)N1CCc2c1cccc2N1C(=O)N(Cc2ccc(-c3nnc(C(F)F)o3)cn2)C(=O)C1(C)C [Compound 31, tert-butyl 4-(3-((5-(5-(difluoromethyl)-1,3,4-oxadiazol-2-yl)pyridin-2-yl)methyl)-5,5-dimethyl-2,4-dioxoimidazolidin-1-yl)indolin-1-carboxylate] | > 10 | 316 |
| CC(=O)Nc1cccc(N2C(=O)N(Cc3ccc(-c4nnc(C(F)F)o4)cn3)C(=O)C2(C)C)c1 [Compound 36, N-(3-(3-((5-(5-(difluoromethyl)-1,3,4-oxadiazol-2-yl)pyridin-2-yl)methyl)-5,5-dimethyl-2,4-dioxoimidazolidin-1-yl)phenyl)acetamide] | > 10 | 35 |
| CN1CCC(c2cccc(N3C(=O)N(Cc4ccc(-c5nnc(C(F)F)o5)cn4)C(=O)C3(C)C)c2)CC1 [Compound 20, 3-((5-(5-(difluoromethyl)-1,3,4-oxadiazol-2-yl)pyridin-2-yl)methyl)-5,5-dimethyl-1-(3-(1-methylpiperidin-4-yl)phenyl)imidazolidin-2,4-dione] | > 10 | 90 |
| CC1(C)C(=O)N(Cc2ccc(-c3nnc(C(F)F)o3)cn2)C(=O)N1c1ccc(F)cc1F [Compound 14, 3-((5-(5-(difluoromethyl)-1,3,4-oxadiazol-2-yl)pyridin-2-yl)methyl)-1-(2,4-difluorophenyl)-5,5-dimethylimidazolidin-2,4-dione] | > 10 | 56 |
| CC1(C)C(=O)N(Cc2ccc(-c3nnc(C(F)F)o3)cn2)C(=O)N1c1cccc2[nH]ccc12 [Compound 32, 3-((5-(5-(difluoromethyl)-1,3,4-oxadiazol-2-yl)pyridin-2-yl)methyl)-1-(1H-indol-4-yl)-5,5-dimethylimidazolidin-2,4-dione] | > 10 | 55 |
| CC1(C)C(=O)N(c2ccccc2)C(=O)N1Cc1ccc(-c2nnc(C(F)F)o2)cc1F [Compound 1, 1-(4-(5-(difluoromethyl)-1,3,4-oxadiazol-2-yl)-2-fluorobenzyl)-5,5-dimethyl-3-phenylimidazolidin-2,4-dione] | > 10 | 665 |
| CC1(C)C(=O)N(Cc2ccc(-c3nnc(C(F)F)o3)cn2)C(=O)N1c1cccc([N+](=O)[O-])c1 [Compound 34, 3-((5-(5-(difluoromethyl)-1,3,4-oxadiazol-2-yl)pyridin-2-yl)methyl)-5,5-dimethyl-1-(3-nitrophenyl)imidazolidin-2,4-dione] | > 10 | 46 |
| CC(=O)N1CCc2c1cccc2N1C(=O)N(Cc2ccc(-c3nnc(C(F)F)o3)cn2)C(=O)C1(C)C [Compound 37, 1-(1-acetylindolin-4-yl)-3-((5-(5-(difluoromethyl)-1,3,4-oxadiazol-2-yl)pyridin-2-yl)methyl)-5,5-dimethylimidazolidin-2,4-dione] | > 10 | 68 |
| CN1CC2(C1)C(=O)N(Cc1ccc(-c3nnc(C(F)F)o3)cn1)C(=O)N2c1ccccc1 [Compound 21, 7-((5-(5-(difluoromethyl)-1,3,4-oxadiazol-2-yl)pyridin-2-yl)methyl)-2-methyl-5-phenyl-2,5,7-triazaspiro[3.4]octan-6,8-dione] | > 10 | 241 |
| CC1(C)C(=O)N(Cc2ccc(-c3nnc(C(F)F)o3)cn2)C(=O)N1c1cc(F)cc(F)c1 [Compound 17, 3-((5-(5-(difluoromethyl)-1,3,4-oxadiazol-2-yl)pyridin-2-yl)methyl)-1-(3,5-difluorophenyl)-5,5-dimethylimidazolidin-2,4-dione] | > 10 | 69 |
| CC(C)N1CC2(C1)C(=O)N(Cc1ccc(-c3nnc(C(F)F)o3)cn1)C(=O)N2c1ccccc1 [Compound 22, 7-((5-(5-(difluoromethyl)-1,3,4-oxadiazol-2-yl)pyridin-2-yl)methyl)-2-isopropyl-5-phenyl-2,5,7-triazaspiro[3.4]octan-6,8-dione] | > 10 | 191 |
| CC(=O)N1CC2(C1)C(=O)N(Cc1ccc(-c3nnc(C(F)F)o3)cn1)C(=O)N2c1ccccc1 [Compound 23, 2-acetyl-7-((5-(5-(difluoromethyl)-1,3,4-oxadiazol-2-yl)pyridin-2-yl)methyl)-5-phenyl-2,5,7-triazaspiro[3.4]octan-6,8-dione] | > 10 | 369 |
| CC1(C)C(=O)N(Cc2ccc(-c3nnc(C(F)F)o3)cn2)C(=O)N1c1ccccc1 [Compound 18, 3-((5-(5-(difluoromethyl)-1,3,4-oxadiazol-2-yl)pyridin-2-yl)methyl)-5,5-dimethyl-1-phenylimidazolidin-2,4-dione] | > 10 | 79 |
| CC1(C)C(=O)N(Cc2ccc(-c3nnc(C(F)F)o3)cn2)C(=O)N1c1c(F)cccc1F [Compound 13, 3-((5-(5-(difluoromethyl)-1,3,4-oxadiazol-2-yl)pyridin-2-yl)methyl)-1-(2,6-difluorophenyl)-5,5-dimethylimidazolidin-2,4-dione] | > 10 | 27 |
| CC1(C)C(=O)N(c2ccccc2)C(=O)N1Cc1ccc(-c2nnc(C(F)(F)F)o2)cc1F [Compound 2, 1-(2-fluoro-4-(5-(trifluoromethyl)-1,3,4-oxadiazol-2-yl)benzyl)-5,5-dimethyl-3-phenylimidazolidin-2,4-dione] | > 10 | 958 |
| CN1CCC2(CC1)C(=O)N(Cc1ccc(-c3nnc(C(F)F)o3)cn1)C(=O)N2c1cccc(F)c1 [Compound 6, 3-((5-(5-(difluoromethyl)-1,3,4-oxadiazol-2-yl)pyridin-2-yl)methyl)-1-(3-fluorophenyl)-8-methyl-1,3,8-triazaspiro[4.5]decan-2,4-dione] | > 10 | 104 |
| CC1(C)C(=O)N(Cc2ccc(-c3nnc(C(F)F)o3)cn2)C(=O)N1c1cccc2c1CCN2 [Compound 33, 3-((5-(5-(difluoromethyl)-1,3,4-oxadiazol-2-yl)pyridin-2-yl)methyl)-1-(indolin-4-yl)-5,5-dimethylimidazolidin-2,4-dione] | > 10 | 58 |
| CC1(C)C(=O)N(Cc2ccc(-c3nnc(C(F)F)o3)cn2)C(=O)N1c1cccc(F)c1F [Compound 15, 3-((5-(5-(difluoromethyl)-1,3,4-oxadiazol-2-yl)pyridin-2-yl)methyl)-1-(2,3-difluorophenyl)-5,5-dimethylimidazolidin-2,4-dione] | > 10 | 43 |
| CC1(C)C(=O)N(Cc2ccc(-c3nnc(C(F)F)o3)cn2)C(=O)N1c1cccc(Br)c1 [Compound 11, 1-(3-bromophenyl)-3-((5-(5-(difluoromethyl)-1,3,4-oxadiazol-2-yl)pyridin-2-yl)methyl)-5,5-dimethylimidazolidin-2,4-dione] | > 10 | 56 |
| CC1(C)C(=O)N(Cc2ccc(-c3nnc(C(F)F)o3)cn2)C(=O)N1c1cccc(F)c1 [Compound 10, 3-((5-(5-(difluoromethyl)-1,3,4-oxadiazol-2-yl)pyridin-2-yl)methyl)-1-(3-fluorophenyl)-5,5-dimethylimidazolidin-2,4-dione] | > 10 | 53 |
| CC1(C)C(=O)N(Cc2ccc(-c3nnc(C(F)F)o3)cn2)C(=O)N1c1ccc(F)cc1 [Compound 12, 3-((5-(5-(difluoromethyl)-1,3,4-oxadiazol-2-yl)pyridin-2-yl)methyl)-1-(4-fluorophenyl)-5,5-dimethylimidazolidin-2,4-dione] | > 10 | 60 |
| CC1(C)C(=O)N(Cc2ccc(-c3nnc(C(F)F)o3)cn2)C(=O)N1c1ccc(-c2ccncc2)cc1 [Compound 26, 3-((5-(5-(difluoromethyl)-1,3,4-oxadiazol-2-yl)pyridin-2-yl)methyl)-5,5-dimethyl-1-(4-(pyridin-4-yl)phenyl)imidazolidin-2,4-dione] | > 10 | 48 |
